Measured values taken from patent publication US20260035359A1, “HERBICIDAL IMIDAZOLE COMPOUNDS” (SYNGENTA CROP PROTECTION AG, priority 2022, published 2026).

Legend:
Type in all cases: in vivo
[1] = test system: Echinochloa crus-gali (ECHCG); experiment: Pre-emergence herbicidal glasshouse test; conditions: 250 g/ha, sprayed after one day cultivation, evaluated after 13 days
Protocol: (§1) Seeds of a variety of test species are sown in standard soil in pots Amaranthus pa/meri (AMAPA), Amaranthus retoflexus (AMARE), Echinochloa crus-gali (ECHCG), Ipomoea hederacea (IPOHE), Setaria faberi (SETFA). After cultivation for one day (pre-emergence) or after 8 days cultivation (post-emergence) under controlled conditions in a glasshouse (at 24/16° C., day/night; 14 hours light; 65% humidity), the plants are sprayed with an aqueous spray solution derived from the formulation of the technical active ingredient in acetone/water (50:50) solution containing 0.5% Tween 20 (polyoxyethelyene sorbitan monolaurate, CAS RN 9005-64-5). Compounds are applied at 250 g/ha unless otherwise stated. The test plants are then grown in a glasshouse under controlled conditions in a glasshouse (at 24/16° C., day/night; 14 hours light; 65% humidity) and watered twice daily. After 13 days for pre and post-emergence, the test is evaluated for the percentage damage caused to the plant. The biological activities are shown in the following table on a five-point scale (5=81-100%; 4=61-80%; 3=41-60%; 2=21-40%; 1=0-20%).

[2] = test system: Amaranthus retoflexus (AMARE); experiment: Pre-emergence herbicidal glasshouse test; conditions: 250 g/ha, sprayed after one day cultivation, evaluated after 13 days
Protocol: as §1

[3] = test system: Amaranthus pa/meri (AMAPA); experiment: Pre-emergence herbicidal glasshouse test; conditions: 250 g/ha, sprayed after one day cultivation, evaluated after 13 days
Protocol: as §1

[4] = test system: Ipomoea hederacea (IPOHE); experiment: Pre-emergence herbicidal glasshouse test; conditions: 250 g/ha, sprayed after one day cultivation, evaluated after 13 days
Protocol: as §1

[5] = test system: Echinochloa crus-gali (ECHCG); experiment: Post-emergence herbicidal glasshouse test; conditions: 250 g/ha, sprayed after 8 days cultivation, evaluated after 13 days
Protocol: as §1

[6] = test system: Amaranthus retoflexus (AMARE); experiment: Post-emergence herbicidal glasshouse test; conditions: 250 g/ha, sprayed after 8 days cultivation, evaluated after 13 days
Protocol: as §1

[7] = test system: Amaranthus pa/meri (AMAPA); experiment: Post-emergence herbicidal glasshouse test; conditions: 250 g/ha, sprayed after 8 days cultivation, evaluated after 13 days
Protocol: as §1

[8] = test system: Ipomoea hederacea (IPOHE); experiment: Post-emergence herbicidal glasshouse test; conditions: 250 g/ha, sprayed after 8 days cultivation, evaluated after 13 days
Protocol: as §1

SMILES | percentage damage caused to the plant, ECHCG [1] | percentage damage caused to the plant, AMARE [2] | percentage damage caused to the plant, AMAPA [3] | percentage damage caused to the plant, IPOHE [4] | percentage damage caused to the plant, ECHCG [5] | percentage damage caused to the plant, AMARE [6] | percentage damage caused to the plant, AMAPA [7] | percentage damage caused to the plant, IPOHE [8]
CCCCc1nc(C(F)(F)F)cn1Cc1ncc(F)cn1 [Compound 1.077, 2-[[2-butyl-4-(trifluoromethyl)imidazol-1-yl]methyl]-5-fluoro-pyrimidine] | 1 (1=0-20%) | 5 (5=81-100%) | 5 (5=81-100%) | 5 (5=81-100%) | 1 (1=0-20%) | 3 (3=41-60%) | 2 (2=21-40%) | 3 (3=41-60%)
CCCCc1nc(C(F)(F)F)cn1Cc1ccc(Cl)cn1 [Compound 1.081] | 1 (1=0-20%) | 2 (2=21-40%) | 2 (2=21-40%) | 1 (1=0-20%) | 1 (1=0-20%) | 3 (3=41-60%) | 3 (3=41-60%) | 2 (2=21-40%)
C#CCON=CCCc1nc(C(F)(F)F)cn1Cc1ncc(Cl)cn1 (single isomer, unassigned) [Compound 1.028] | 1 (1=0-20%) | 5 (5=81-100%) | 5 (5=81-100%) | 4 (4=61-80%) | 2 (2=21-40%) | 5 (5=81-100%) | 4 (4=61-80%) | 2 (2=21-40%)
CCCCc1nc(C=NOC)cn1Cc1ncc(Cl)cn1 (single isomer, unassigned) [Compound 1.076, 1-[2-butyl-1-[(5-chloropyrimidin-2-yl)methyl]imidazol-4-yl]-N-methoxy-methanimine] | 1 (1=0-20%) | 1 (1=0-20%) | 1 (1=0-20%) | 1 (1=0-20%) | 1 (1=0-20%) | 1 (1=0-20%) | 1 (1=0-20%) | 1 (1=0-20%)
CCCc1nc(C(F)(F)F)cn1Cc1ncc(Cl)cn1 [Compound 1.042] | 1 (1=0-20%) | 4 (4=61-80%) | 4 (4=61-80%) | 4 (4=61-80%) | 1 (1=0-20%) | 3 (3=41-60%) | 3 (3=41-60%) | 3 (3=41-60%)
FC(F)(F)c1cn(Cc2ncc(Cl)cn2)c(CCCCl)n1 [Compound 1.051, 5-chloro-2-[[2-(3-chloropropyl)-4-(trifluoromethyl)imidazol-1-yl]methyl]pyrimidine] | 2 (2=21-40%) | 5 (5=81-100%) | 5 (5=81-100%) | 5 (5=81-100%) | 4 (4=61-80%) | 5 (5=81-100%) | 4 (4=61-80%) | 4 (4=61-80%)
CON=CCCc1nc(C(F)(F)F)cn1Cc1ncc(Cl)cn1 (single isomer, unassigned) [Compound 1.007, 3-[1-[(5-chloropyrimidin-2-yl)methyl]-4-(trifluoromethyl)-imidazol-2-yl]-N-methoxy-propan-1-imine] | 2 (2=21-40%) | 5 (5=81-100%) | 5 (5=81-100%) | 5 (5=81-100%) | 1 (1=0-20%) | 4 (4=61-80%) | 4 (4=61-80%) | 3 (3=41-60%)
CCCCc1nc(C(F)(F)F)cn1Cc1ccc(C#N)cn1 [Compound 1.056] | 1 (1=0-20%) | 4 (4=61-80%) | 4 (4=61-80%) | 2 (2=21-40%) | 1 (1=0-20%) | 2 (2=21-40%) | 2 (2=21-40%) | 2 (2=21-40%)
CCCCCc1nc(C(F)(F)F)cn1Cc1ncc(C)cn1 [Compound 1.016] | 1 (1=0-20%) | 5 (5=81-100%) | 5 (5=81-100%) | 2 (2=21-40%) | 1 (1=0-20%) | 2 (2=21-40%) | 1 (1=0-20%) | 2 (2=21-40%)
FC(F)CCc1nc(C(F)(F)F)cn1Cc1ncc(Cl)cn1 [Compound 1.010, 5-chloro-2-[[2-(3,3-difluoropropyl)-4-(trifluoromethyl)-imidazol-1-yl]methyl]-pyrimidine] | 4 (4=61-80%) | 5 (5=81-100%) | 5 (5=81-100%) | 5 (5=81-100%) | 4 (4=61-80%) | 4 (4=61-80%) | 4 (4=61-80%) | 4 (4=61-80%)
CCCCc1nc(C(F)(F)F)cn1Cc1ncc(Cl)cc1F [Compound 1.058] | 5 (5=81-100%) | 5 (5=81-100%) | 5 (5=81-100%) | 5 (5=81-100%) | 4 (4=61-80%) | 4 (4=61-80%) | 3 (3=41-60%) | 4 (4=61-80%)
FC(F)(F)c1cn(Cc2ncc(Cl)cn2)c(CC2CCOC2)n1 (stereo not shown) [Compound 1.074] | 3 (3=41-60%) | 5 (5=81-100%) | 5 (5=81-100%) | 5 (5=81-100%) | 3 (3=41-60%) | 4 (4=61-80%) | 4 (4=61-80%) | 4 (4=61-80%)
CCCCc1nc(C(F)F)cn1Cc1ncc(Cl)cn1 [Compound 1.053, 2-[[2-butyl-4-(difluoromethyl)imidazol-1-yl]methyl]-5-chloro-pyrimidine] | 1 (1=0-20%) | 1 (1=0-20%) | 1 (1=0-20%) | 1 (1=0-20%) | 1 (1=0-20%) | 1 (1=0-20%) | 1 (1=0-20%) | 1 (1=0-20%)
O=CCCc1nc(C(F)(F)F)cn1Cc1ncc(Cl)cn1 [Compound 1.013, 3-[1-[(5-chloropyrimidin-2-yl)methyl]-4-(trifluoromethyl)imidazol-2-yl]propanal] | 1 (1=0-20%) | 5 (5=81-100%) | 2 (2=21-40%) | 1 (1=0-20%) | 1 (1=0-20%) | 1 (1=0-20%) | 1 (1=0-20%) | 1 (1=0-20%)
CCCCCc1nc(C(F)(F)F)cn1Cc1ncc(C#N)cn1 [Compound 1.015] | 1 (1=0-20%) | 4 (4=61-80%) | 4 (4=61-80%) | 2 (2=21-40%) | 1 (1=0-20%) | 2 (2=21-40%) | 1 (1=0-20%) | 3 (3=41-60%)
CCCCc1nc(I)cn1Cc1ncc(Cl)cn1 [Compound 1.079] | 1 (1=0-20%) | 1 (1=0-20%) | 1 (1=0-20%) |  | 1 (1=0-20%) | 1 (1=0-20%) | 1 (1=0-20%) | 1 (1=0-20%)
